Experiments:
rat [1] = conditions: Carcinogenicity; other; Oral; Feed; dose end: 24 month; group: systemic; systemic / pathology microscopic / [other] / [other]
mouse [2] = conditions: Prenatal developmental toxicity study, cd1, Oral, Gavage/Intubation, dose end: 15 GD
rat [3] = conditions: Prenatal developmental toxicity study, sprague dawley, Oral, Gavage/Intubation, dose end: 15 GD
mouse [4] = conditions: Prenatal developmental toxicity study, cd1, Oral, [Not Specified], dose end: 14 GD
mouse [5] = conditions: Multigenerational reproductive toxicity study, cd1, Oral, Water, dose end: 2 generation, group: offspring
rabbit [6] = conditions: Prenatal developmental toxicity study, himalayan, Oral, Gavage/Intubation, dose end: 19 GD
dog [7] = conditions: Chronic toxicity, beagle, Oral, Feed, dose end: 53 week
rat [8] = conditions: Combined chronic toxicity/carcinogenicity, sprague dawley, Oral, Feed, dose end: 115 week
rabbit [9] = conditions: Prenatal developmental toxicity study, himalayan, Oral, Gavage/Intubation, dose end: 18 GD
rat [10] = conditions: Neurotoxicity screening battery, wistar, Oral, Feed, dose end: 90 day, group: cannot be grouped
rat [11] = conditions: Subchronic oral toxicity in rodents, sprague dawley, Feed, dose end: 13 week
mouse [12] = conditions: Carcinogenicity; other; Oral; Feed; dose end: 104 week; group: systemic; systemic / pathology microscopic / eye / cataract + systemic / pathology microscopic / kidney / vacuolization
rat [13] = conditions: Combined chronic toxicity/carcinogenicity; fischer; Oral; [Not Specified]; dose end: 105 week; group: systemic; systemic / in life observation / body weight / body weight gain + systemic / pathology microscopic / kidney / cytoplasmic alteration + …
rat [14] = conditions: Subchronic oral toxicity in rodents, fischer, Feed, dose end: 13 week, group: systemic
rat [15] = conditions: Subchronic oral toxicity in rodents, sprague dawley, Feed, dose end: 13 week, group: systemic, systemic / clinical chemistry / protein / protein + systemic / in life observation / body weight / body weight + systemic / in life …
rabbit [16] = conditions: Prenatal developmental toxicity study, new zealand white, Oral, Gavage/Intubation, dose end: 18 GD
mouse [17] = conditions: Carcinogenicity, cd1, Oral, Feed, dose end: 94 week, group: systemic
dog [18] = conditions: Subchronic oral toxicity in nonrodent, beagle, Feed, dose end: 90 day, group: systemic
rat [19] = conditions: Combined chronic toxicity/carcinogenicity; sprague dawley; Oral; Feed; dose end: 24 month; group: systemic; systemic / in life observation / body weight / body weight + systemic / in life observation / body weight / body weight gain + systemic / …
dog [20] = conditions: Chronic toxicity; beagle; Oral; Feed; dose end: 52 week; group: systemic; systemic / clinical chemistry / alkaline phosphatase (alp/alk) / alkaline phosphatase (alp/alk) + systemic / clinical chemistry / …
rat [21] = conditions: Multigenerational reproductive toxicity study, wistar, Oral, Feed, dose end: 2 generation
[22] = group: developmental, developmental / developmental malformation / bone / incomplete ossification + systemic / in life observation / body weight / fetal weight + …
[23] = group: maternal, systemic / organ weight / uterus / nos + systemic / in life observation / clinical signs / altered breathing rate + systemic / in life …
[24] = group: developmental, developmental / developmental malformation / bone / [other] + developmental / developmental malformation / bone / delayed ossification + …
[25] = group: maternal, systemic / in life observation / body weight / body weight + systemic / in life observation / food consumption / food consumption + systemic…
[26] = group: developmental, systemic / in life observation / body weight / offspring (pup) weight gain
[27] = group: maternal, systemic / in life observation / mortality / mortality
[28] = systemic / in life observation / body weight / offspring (pup) weight + systemic / organ weight / liver / relative to body weight + systemic…
[29] = group: developmental, developmental / developmental malformation / bone / cranioschisis + developmental / developmental malformation / bone / exencephaly + …
[30] = group: maternal, systemic / in life observation / clinical signs / swelling
[31] = group: cholinesterase, cholinesterase / cholinesterase / cholinesterase / cholinesterase (che)
[32] = group: systemic, systemic / clinical chemistry / alkaline phosphatase (alp/alk) / alkaline phosphatase (alp/alk)
[33] = group: cholinesterase, cholinesterase / cholinesterase / cholinesterase / plasma cholinesterase (che) + cholinesterase / cholinesterase / cholinesterase / brain (…
[34] = group: systemic, systemic / pathology microscopic / liver / eosinophilic focus
[35] = group: maternal, reproductive / reproductive performance / aborted / aborted + reproductive / reproductive performance / resorptions / resorptions + systemic…
[36] = group: cholinesterase, cholinesterase / cholinesterase / cholinesterase / erythrocyte cholinesterase (che)
[37] = group: systemic, systemic / organ weight / liver / relative to body weight + systemic / pathology microscopic / liver / necrosis
[38] = systemic / clinical chemistry / creatinine / creatinine + systemic / hematology / erythrocyte (rbc) count differential / erythrocyte (rbc…
[39] = group: developmental, developmental / developmental malformation / bone / [other] + developmental / developmental malformation / bone / misshapen
[40] = group: maternal, reproductive / reproductive performance / aborted / aborted + reproductive / reproductive performance / postimplantation loss / …
[41] = systemic / in life observation / body weight / body weight gain + systemic / organ weight / liver / relative to body weight + systemic / …
[42] = systemic / organ weight / liver / relative to body weight + systemic / pathology microscopic / liver / vacuolization
[43] = systemic / organ weight / liver / relative to body weight + systemic / pathology microscopic / liver / vacuolization + systemic / in life …
[44] = group: offspring, systemic / in life observation / body weight / offspring (pup) weight
[45] = group: parental, systemic / in life observation / body weight / body weight + systemic / in life observation / body weight / body weight gain + systemic / in…

## OCCOCCOCCO [Triethylene glycol]
Rat [1]
  LEL: 4 mg/kg/day
  LOAEL: > 4 mg/kg/day
  NEL: < 4 mg/kg/day
  NOAEL: ≥ 4 mg/kg/day
Mouse [2]; group: developmental, developmental / developmental malformation / bone / incomplete ossification + systemic / in life observation / body weight / fetal weight
  LEL: 5630 mg/kg/day
Mouse [2]; [22]
  LOAEL: > 11300 mg/kg/day
  NEL: 563 mg/kg/day
  NOAEL: ≥ 11300 mg/kg/day
Mouse [2]; group: maternal, systemic / organ weight / uterus / nos
  LEL: 5630 mg/kg/day
Mouse [2]; [23]
  LOAEL: > 11300 mg/kg/day
  NEL: 563 mg/kg/day
  NOAEL: ≥ 11300 mg/kg/day
Rat [3]; [24]
  LEL: 11300 mg/kg/day
  LOAEL: > 11300 mg/kg/day
  NEL: 5630 mg/kg/day
  NOAEL: ≥ 11300 mg/kg/day
Rat [3]; [25]
  LEL: 5630 mg/kg/day
  LOAEL: > 11300 mg/kg/day
  NEL: 1130 mg/kg/day
  NOAEL: ≥ 11300 mg/kg/day
Mouse [4]; [26]
  LEL: 11300 mg/kg/day
  LOAEL: 11300 mg/kg/day
  NEL: 4500 mg/kg/day
  NOAEL: 4500 mg/kg/day
Mouse [4]; [27]
  LEL: 11300 mg/kg/day
  LOAEL: 11300 mg/kg/day
  NEL: 4500 mg/kg/day
  NOAEL: 4500 mg/kg/day
Mouse [5]; systemic / in life observation / body weight / offspring (pup) weight
  LEL: 2000 mg/kg/day
Mouse [5]; systemic / in life observation / body weight / offspring (pup) weight + systemic / organ weight / liver / relative to body weight
  NEL: 400 mg/kg/day
Mouse [5]; [28]
  LOAEL: > 4000 mg/kg/day
  NOAEL: ≥ 4000 mg/kg/day

## CC(Cc1ccc(C(C)(C)C)cc1)CN1C[C@@H](C)O[C@@H](C)C1 (stereo partly drawn) [(2R,6S)-Fenpropimorph]
Rabbit [6]; [29]
  LEL: 30 mg/kg/day
  LOAEL: 30 mg/kg/day
  NEL: 15 mg/kg/day
  NOAEL: 15 mg/kg/day
Rabbit [6]; [30]
  LEL: 30 mg/kg/day
  LOAEL: 30 mg/kg/day
  NEL: 15 mg/kg/day
  NOAEL: 15 mg/kg/day
Dog [7]; [31]
  LEL: 12.3 mg/kg/day
  LOAEL: 12.3 mg/kg/day
  NEL: 3.2 mg/kg/day
  NOAEL: 3.2 mg/kg/day
Dog [7]; [32]
  LEL: 12.3 mg/kg/day
  LOAEL: 12.3 mg/kg/day
  NEL: 3.2 mg/kg/day
  NOAEL: 3.2 mg/kg/day
Rat [8]; [33]
  LEL: 0.2 mg/kg/day
  LOAEL: > 8.8 mg/kg/day
  NEL: < 0.2 mg/kg/day
  NOAEL: ≥ 8.8 mg/kg/day
Rat [8]; [34]
  LEL: 0.2 mg/kg/day
  NEL: < 0.2 mg/kg/day
Rat [8]; group: systemic, systemic / pathology microscopic / liver / hypertrophy + systemic / organ weight / liver / relative to body weight
  NOAEL: 1.7 mg/kg/day
Rat [8]; group: systemic, systemic / pathology microscopic / liver / hypertrophy + systemic / pathology microscopic / liver / eosinophilic focus + systemic / …
  LOAEL: 8.8 mg/kg/day
Rabbit [9]; group: developmental, developmental / developmental malformation / general / [other]
  LOAEL: 36 mg/kg/day
Rabbit [9]; group: developmental, developmental / developmental malformation / general / [other] + developmental / developmental malformation / bone / misshapen
  LEL: 36 mg/kg/day
Rabbit [9]; [35]
  LEL: 36 mg/kg/day
  LOAEL: 36 mg/kg/day
Rat [10]; cholinesterase / cholinesterase / cholinesterase / cholinesterase (che)
  LEL: 0.8 mg/kg/day
Rat [10]; cholinesterase / cholinesterase / cholinesterase / cholinesterase (che) + systemic / clinical chemistry / alanine aminotransferase (alt/sgpt…
  NEL: 0.1 mg/kg/day
Rat [10]; systemic / organ weight / liver / absolute + systemic / organ weight / liver / relative to body weight
  LOAEL: 7.1 mg/kg/day
Rat [10]; systemic / organ weight / liver / absolute + systemic / organ weight / liver / relative to body weight + cholinesterase / cholinesterase / …
  NOAEL: 0.7 mg/kg/day
Rat [11]; [31]
  LOAEL: > 1.54 mg/kg/day
  NOAEL: ≥ 1.54 mg/kg/day
Rat [11]; [36]
  LEL: 0.465 mg/kg/day
  NEL: < 0.465 mg/kg/day
Rat [11]; [37]
  LEL: 0.768 mg/kg/day
  LOAEL: 1.54 mg/kg/day
  NEL: 0.382 mg/kg/day
  NOAEL: 0.768 mg/kg/day

## CCOc1nc(F)cc2nc(S(=O)(=O)Nc3c(Cl)cccc3Cl)nn12 [Diclosulam]
Mouse [12]
  LEL: 51.3 mg/kg/day
  LOAEL: 51.3 mg/kg/day
  NEL: < 51.3 mg/kg/day
  NOAEL: < 51.3 mg/kg/day
Rat [13]
  LEL: 102 mg/kg/day
  LOAEL: 102 mg/kg/day
  NEL: 5.1 mg/kg/day
  NOAEL: 5.1 mg/kg/day
Rat [14]; [38]
  LEL: 50 mg/kg/day
  NEL: < 50 mg/kg/day
  NOAEL: 50 mg/kg/day
Rat [14]; systemic / organ weight / liver / relative to body weight + systemic / pathology microscopic / liver / hypertrophy + systemic / pathology …
  LOAEL: 100 mg/kg/day

## COCC(C)N(C(=O)CCl)c1c(C)csc1C (stereo not given) [Dimethenamid]
Rat [15]
  LEL: 98 mg/kg/day
  LOAEL: 98 mg/kg/day
  NEL: 33.5 mg/kg/day
  NOAEL: 33.5 mg/kg/day
Rabbit [16]; [39]
  LEL: 150 mg/kg/day
  LOAEL: 150 mg/kg/day
  NEL: 75 mg/kg/day
  NOAEL: 75 mg/kg/day
Rabbit [16]; [40]
  LEL: 150 mg/kg/day
  LOAEL: 150 mg/kg/day
  NEL: 75 mg/kg/day
  NOAEL: 75 mg/kg/day
Mouse [17]; systemic / in life observation / body weight / body weight gain
  LOAEL: 200 mg/kg/day
Mouse [17]; [41]
  LEL: 200 mg/kg/day
  NEL: 40.1 mg/kg/day
  NOAEL: 40.1 mg/kg/day
Dog [18]; [42]
  LEL: 33.6 mg/kg/day
  LOAEL: 33.6 mg/kg/day
Dog [18]; [43]
  NEL: 4.72 mg/kg/day
  NOAEL: 4.72 mg/kg/day
Rat [19]
  LEL: 36 mg/kg/day
  LOAEL: 36 mg/kg/day
  NEL: 5.1 mg/kg/day
  NOAEL: 5.1 mg/kg/day
Dog [20]
  LEL: 48.7 mg/kg/day
  LOAEL: 48.7 mg/kg/day
  NEL: 10.1 mg/kg/day
  NOAEL: 10.1 mg/kg/day
Rat [21]; [44]
  LEL: 150 mg/kg/day
  LOAEL: 150 mg/kg/day
  NEL: 36 mg/kg/day
  NOAEL: 36 mg/kg/day
Rat [21]; [45]
  LEL: 150 mg/kg/day
  LOAEL: 150 mg/kg/day
  NEL: 36 mg/kg/day
  NOAEL: 36 mg/kg/day
